Measurements reported in US9502658B2, “Fullerene derivatives and related materials, methods, and devices” (Nano-C, Inc., priority 2013, dated 2016).
≈ marks a conversion by molar mass, not a printed value.

Test: Solubility in o-dichlorobenzene by UV-vis absorbance at 360 nm
Conditions: for solubility in o-dichlorobenzene: room temperature (about 22° C.)

| solubility in common organic solvents (in words, compared to the fullerenes according to the invention) | Structure (SMILES) | solubility in o-dichlorobenzene [mg/mL] |
| --- | --- | --- |
| – | CCCCCCCC1c2ccccc2C(CCCCCCC)C23c4c5c6c7c8c9c(c%10c%11c2c2c4c4c%12c5c5c6c6c8c8c%13c9c9c%10c%10c%11c%11c2c2c4c4c%12c%12c5c5c6c8c6c8c%13c9c9c%10c%10c%11c2c2c4c4c%12c5c6c5c8c9c%10c2c45)C713 (centres unmarked) [Fullerene 5] | 20 (≈ 19.6 mM) |
| – | CCCCC1c2ccccc2C(CCCC)C23c4c5c6c7c8c9c(c%10c%11c2c2c4c4c%12c5c5c6c6c8c8c%13c9c9c%10c%10c%11c%11c2c2c4c4c%12c%12c5c5c6c8c6c8c%13c9c9c%10c%10c%11c2c2c4c4c%12c5c6c5c8c9c%10c2c45)C713 (centres unmarked) [Fullerene 3] | 9.3 (≈ 9.92 mM) |
| – | CCCCCCC1c2ccccc2C(CCCCCC)C23c4c5c6c7c8c9c(c%10c%11c2c2c4c4c%12c5c5c6c6c8c8c%13c9c9c%10c%10c%11c%11c2c2c4c4c%12c%12c5c5c6c8c6c8c%13c9c9c%10c%10c%11c2c2c4c4c%12c5c6c5c8c9c%10c2c45)C713 (centres unmarked) [Fullerene 4] | 45 (≈ 45.3 mM) |
| lower solubility | c1ccc2c(c1)CC13c4c5c6c7c8c9c(c%10c%11c1c1c%12c4c4c%13c5c5c7c7c8c8c%14c9c%10c9c%10c%11c1c1c%11c%12c4c4c%12c%13c5c5c7c7c8c8c%14c9c9c%10c1c1c%11c4c4c%12c5c7c5c8c9c1c45)C63C2 (centres unmarked) [oQDM-C60, reference compound] | 5.8 (≈ 7.03 mM) |
